Laboratory results: ChEMBL document CHEMBL5137019, “Sattahipmycin, a Hexacyclic Xanthone Produced by a Marine-Derived Streptomyces” (J Nat Prod, 2022)
≈ marks a conversion by molar mass, not a printed value. Calls of active or inactive are those of the source. The calls are words filed in the database; no cut-off is given here.

Assays:
[1] = Cytotoxicity against human MRC5 cells assessed as cell growth inhibition and measured after 2 days by WST-8 assay; assay type: toxicity, cell-based
Kocuria rhizophila = assay: Antibacterial activity against Kocuria rhizophila KB212 assessed as bacterial growth inhibition by paper disc method; assay type: functional
Bacillus subtilis [2] = assay: Antibacterial activity against Bacillus subtilis KB211 assessed as bacterial growth inhibition by paper disc method; assay type: functional
Bacillus subtilis [3] = assay: Antibacterial activity against Bacillus subtilis KB211 at 1 to 30 ug paper disc by paper disc method; assay type: functional, organism-based; conditions: dose 1-30 µg
Staphylococcus aureus [4] = assay: Antibacterial activity against Staphylococcus aureus KB210 at 1 to 30 ug per disc by paper disc method; assay type: functional, organism-based; conditions: dose 1-30 µg
Micrococcus luteus = assay: Antibacterial activity against Micrococcus luteus KB212 at 1 to 30 ug per disc by paper disc method; assay type: functional, organism-based; conditions: dose 1-30 µg
[5] = tested on: Xanthomonas campestris pv. oryzae; assay: Antibacterial activity against Xanthomonas campestris pv. oryzae KB88 at 1 to 30 ug per disc by paper disc method; assay type: functional, organism-based; conditions: dose 1-30 µg
Staphylococcus aureus [6] = assay: Antibacterial activity against Staphylococcus aureus KB210 assessed as bacterial growth inhibition by paper disc method; assay type: functional
[7] = tested on: Xanthomonas campestris pv. oryzae; assay: Antibacterial activity against Xanthomonas campestris pv. oryzae KB88 assessed as bacterial growth inhibition by paper disc method; assay type: functional
Escherichia coli [8] = assay: Antibacterial activity against Escherichia coli NBRC 3972 assessed as bacterial growth inhibition by paper disc method; assay type: functional
HeLa S3 = assay: Cytotoxicity against human HeLa S3 cells assessed as cell growth inhibition and measured after 2 days by WST-8 assay; assay type: functional, cell-based; conditions: HeLa S3, 48 h
HT-29 = assay: Cytotoxicity against human HT-29 cells assessed as cell growth inhibition and measured after 2 days by WST-8 assay; assay type: functional, cell-based; conditions: HT-29, 48 h
A549 = assay: Cytotoxicity against human A549 cells assessed as cell growth inhibition and measured after 2 days by WST-8 assay; assay type: functional, cell-based; conditions: A549, 48 h
NCI-H1299 = assay: Cytotoxicity against human NCI-H1299 cells assessed as cell growth inhibition and measured after 2 days by WST-8 assay; assay type: functional, cell-based; conditions: NCI-H1299, 48 h
PANC-1 = assay: Cytotoxicity against human PANC-1 cells assessed as cell growth inhibition and measured after 2 days by WST-8 assay; assay type: functional, cell-based; conditions: PANC-1, 48 h
Plasmodium falciparum [9] = assay: Antimalarial activity against chloroquine-resistant Plasmodium falciparum K1 assessed as parasite growth inhibition and measured after 72 hrs by ELISA; assay type: functional, organism-based; conditions: K1, 72 h
Plasmodium falciparum [10] = assay: Antimalarial activity against chloroquine-sensitive Plasmodium falciparum FCR3 assessed as parasite growth inhibition and measured after 72 hrs by ELISA; assay type: functional, organism-based; conditions: FCR3, 72 h
[11] = Selectivity index, ratio of IC50 for cytotoxicity against human MRC5 cells to IC50 for antimalarial activity against chloroquine-resistant Plasmodium falciparum K1; assay type: toxicity, cell-based; conditions: MRC5 cells versus Plasmodium falciparum K1, read-out: Ratio IC50
[12] = Selectivity index, ratio of IC50 for cytotoxicity against human MRC5 cells to IC50 for antimalarial activity against […] Plasmodium falciparum FCR3; assay type: toxicity, cell-based; conditions: MRC5 cells versus Plasmodium falciparum FCR3, read-out: Ratio IC50
Escherichia coli [13] = assay: Antibiofilm activity against Escherichia coli NBRC 3972 assessed as inhibition of biofilm formation at 15 to 60 ug/ml incubated overnight by crystal violet staining based ELISA; assay type: functional; conditions: dose 15-60 µg/ml; at 15 to 60 µg/mL
Escherichia coli [14] = assay: Bactericidal activity against Escherichia coli NBRC 3972; assay type: functional

Q: With CCN(CC)CCCC(C)Nc1ccnc2cc(Cl)ccc12 (configuration not stated) [CHLOROQUINE] as the compound, how does the IC50 at 2 days [1] read?
A: Its IC50 at 2 days is 58200 nM.

Q: With COc1c2c(c(O)c3c(=O)c4cccc(O)c4oc13)-c1c(cc3cc(C)[nH]c(=O)c3c1O)C[C@H]2O as the compound, how does the MIC (Kocuria rhizophila) read?
A: The MIC was 0.25 µg/mL (≈ 0.528 µM).

Q: What about the MIC (Bacillus subtilis [2]) of the same compound?
A: The MIC was 0.25 µg/mL (≈ 0.528 µM).

Q: And the Activity (Bacillus subtilis [3])?
A: The Activity was “Active”.

Q: And the Activity (Staphylococcus aureus [4])?
A: The Activity was “Active”.

Q: And the Activity (Micrococcus luteus)?
A: Its Activity is “Active”.

Q: What about the Activity [5] of the same compound?
A: Its Activity is “Active”.

Q: What about the MIC (Staphylococcus aureus [6]) of the same compound?
A: The MIC was 0.25 µg/mL (≈ 0.528 µM).

Q: And the MIC [7]?
A: The MIC was 0.25 µg/mL (≈ 0.528 µM).

Q: And the MIC (Escherichia coli [8])?
A: The MIC was over 250 µg/mL.

Q: What about the IC50 (HeLa S3) of the same compound?
A: Its IC50 is 2180 nM.

Q: What about the IC50 (HT-29) of the same compound?
A: Its IC50 is 1900 nM.

Q: And the IC50 (A549)?
A: Its IC50 is 1860 nM.

Q: And the IC50 (NCI-H1299)?
A: The IC50 was 10600 nM.

Q: And the IC50 (PANC-1)?
A: Its IC50 is 12900 nM.

Q: And the IC50 (Plasmodium falciparum [9])?
A: The IC50 was 270 nM.

Q: What about the IC50 (Plasmodium falciparum [10]) of the same compound?
A: The IC50 was 200 nM.

Q: What about the IC50 at 2 days [1] of the same compound?
A: The IC50 at 2 days was 170 nM.

Q: What about the selectivity ratio [11] of the same compound?
A: Its selectivity ratio is 0.62.

Q: And the selectivity ratio [12]?
A: Its selectivity ratio is 0.85.

Q: What about the “inhibition (INH)” value (Escherichia coli [13]) of the same compound?
A: Its value is 50%.

Q: What about the Activity (Escherichia coli [14]) of the same compound?
A: Its Activity is over 250 µg/mL.

Q: For C[C@@H]1CC[C@H]2[C@@H](C)C(=O)O[C@@H]3O[C@@]4(C)CC[C@@H]1[C@]32OO4 [ARTEMISININ], which IC50 (Plasmodium falciparum [9]) is on record?
A: Its IC50 is 30 nM.

Q: And the IC50 (Plasmodium falciparum [10])?
A: The IC50 was 20 nM.

Q: And the IC50 at 2 days [1]?
A: The IC50 at 2 days was 50300 nM.

Q: What about the selectivity ratio [11] of the same compound?
A: The selectivity ratio was 1580.

Q: What about the selectivity ratio [12] of the same compound?
A: The selectivity ratio was 2030.
